Data: patent US7659404B2, “Broad spectrum 2-(substituted-amino)-benzothiazole sulfonamide HIV protease inhibitors” (Tibotec Pharmaceuticals Ltd., priority 2001, dated 2010)
pEC50: −log10 of the molar value.

Legend:
[1] = test system: clinically isolated HIV strain P; experiment: Antiviral spectrum, cellular assay (fold resistance), strain P; format: cell-based; conditions: FR=EC50(mutant strain)/EC50(HIV-1 strain LAI)
Method: (§1) HIV- or mock-infected MT4 cells were incubated for five days in the presence of various concentrations of the inhibitor. At the end of the incubation period, all HIV-infected cells have been killed by the replicating virus in the control cultures in the absence of any inhibitor. Cell viability is measured by measuring the concentration of MTT, a yellow, water soluble tetrazolium dye that is converted to a purple, water insoluble formazan in the mitochondria of living cells only. Upon solubilization of the resulting formazan crystals with isopropanol, the absorbance of the solution is monitored at 540 nm. The values correlate directly to the number of living cells remaining in the culture at the completion of the five day incubation. The inhibitory activity of the compound was monitored on the virus-infected cells and was expressed as EC50 and EC90. These values represent the amount of the compound required to protect 50% and 90%, respectively, of the cells from the cytopathogenic effect of the virus. The toxicity of the compound was measured on the mock-infected cells and was expressed as CC50, which represents the concentration of compound required to inhibit the growth of the cells by 50%. The selectivity index (SI) (ratio CC50/EC50) is an indication of the selectivity of the anti-HIV activity of the inhibitor.
(§2) Because of the increasing emergence of drug resistant HIV strains, the present compounds were tested for their potency against clinically isolated HIV strains harboring several mutations. These mutations are associated with resistance to protease inhibitors and result in viruses that show various degrees of phenotypic cross-resistance to the currently commercially available drugs such as for instance saquinavir, ritonavir, nelfinavir, indinavir and amprenavir.
(§3) As a measure of the broad spectrum activity of the present compounds, the fold resistance (FR) defined as FR=EC50(mutant strain)/EC50(HIV-1 strain LAI).

[2] = test system: clinically isolated HIV strain M; experiment: Antiviral spectrum, cellular assay (fold resistance), strain M; format: cell-based; conditions: FR=EC50(mutant strain)/EC50(HIV-1 strain LAI)
Method: as §1, §2, §3

[3] = test system: clinically isolated HIV strain A; experiment: Antiviral spectrum, cellular assay (fold resistance), strain A; format: cell-based; conditions: FR=EC50(mutant strain)/EC50(HIV-1 strain LAI)
Method: as §1, §2, §3

[4] = test system: clinically isolated HIV strain N; experiment: Antiviral spectrum, cellular assay (fold resistance), strain N; format: cell-based; conditions: FR=EC50(mutant strain)/EC50(HIV-1 strain LAI)
Method: as §1, §2, §3

[5] = test system: clinically isolated HIV strain Q; experiment: Antiviral spectrum, cellular assay (fold resistance), strain Q; format: cell-based; conditions: FR=EC50(mutant strain)/EC50(HIV-1 strain LAI)
Method: as §1, §2, §3

[6] = test system: clinically isolated HIV strain B; experiment: Antiviral spectrum, cellular assay (fold resistance), strain B; format: cell-based; conditions: FR=EC50(mutant strain)/EC50(HIV-1 strain LAI)
Method: as §1, §2, §3

[7] = test system: clinically isolated HIV strain G; experiment: Antiviral spectrum, cellular assay (fold resistance), strain G; format: cell-based; conditions: FR=EC50(mutant strain)/EC50(HIV-1 strain LAI)
Method: as §1, §2, §3

[8] = test system: clinically isolated HIV strain K; experiment: Antiviral spectrum, cellular assay (fold resistance), strain K; format: cell-based; conditions: FR=EC50(mutant strain)/EC50(HIV-1 strain LAI)
Method: as §1, §2, §3

[9] = test system: clinically isolated HIV strain E; experiment: Antiviral spectrum, cellular assay (fold resistance), strain E; format: cell-based; conditions: FR=EC50(mutant strain)/EC50(HIV-1 strain LAI)
Method: as §1, §2, §3

[10] = test system: clinically isolated HIV strain R; experiment: Antiviral spectrum, cellular assay (fold resistance), strain R; format: cell-based; conditions: FR=EC50(mutant strain)/EC50(HIV-1 strain LAI)
Method: as §1, §2, §3

[11] = test system: clinically isolated HIV strain D; experiment: Antiviral spectrum, cellular assay (fold resistance), strain D; format: cell-based; conditions: FR=EC50(mutant strain)/EC50(HIV-1 strain LAI)
Method: as §1, §2, §3

virus strain S (R13080) = experiment: microbe, parasite or virus in culture; format: cell-based, HIV; conditions: FR=EC50(mutant strain)/EC50(HIV-1 strain LAI); strain S
In short: (§4)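 MT4 cells, HIV or mock infection, 5 d with compound dilutions; MTT readout, formazan in isopropanol, A540. EC50/EC90 = conc. protecting 50/90% of cells from CPE; CC50 from mock-infected cells. FR = EC50 mutant/EC50 LAI.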

virus strain F (R13025) = experiment: microbe, parasite or virus in culture; format: cell-based, HIV; conditions: FR=EC50(mutant strain)/EC50(HIV-1 strain LAI); strain F
In short: as §4

[12] = test system: clinically isolated HIV strain C; experiment: Antiviral spectrum, cellular assay (fold resistance), strain C; format: cell-based; conditions: FR=EC50(mutant strain)/EC50(HIV-1 strain LAI)
Method: as §1, §2, §3

[13] = test system: clinically isolated HIV strain H; format: cell-based; conditions: FR=EC50(mutant strain)/EC50(HIV-1 strain LAI)
In short: as §4

[14] = test system: clinically isolated HIV strain J; format: cell-based; conditions: FR=EC50(mutant strain)/EC50(HIV-1 strain LAI)
In short: as §4

[15] = test system: clinically isolated HIV strain O; format: cell-based; conditions: FR=EC50(mutant strain)/EC50(HIV-1 strain LAI)
In short: as §4

[16] = test system: clinically isolated HIV strain T; format: cell-based; conditions: FR=EC50(mutant strain)/EC50(HIV-1 strain LAI)
In short: as §4

[17] = test system: clinically isolated HIV strain I; format: cell-based; conditions: FR=EC50(mutant strain)/EC50(HIV-1 strain LAI)
In short: as §4

[18] = test system: clinically isolated HIV strain L; experiment: Antiviral spectrum, cellular assay (fold resistance), strain L; format: cell-based; conditions: FR=EC50(mutant strain)/EC50(HIV-1 strain LAI)
Method: as §1, §2, §3

HIV-1 strain LAI = experiment: Cellular anti-HIV assay in MT4 cells (MTT), wild type laboratory strain; format: cell-based; conditions: Human immunodeficiency virus 1, 120 h; MT4 cells, five days, MTT; read-out: EC50 value against HIV-1 strain LAI
Method: The compounds of the present invention were examined for anti-viral activity in a cellular assay. […] The cellular assay was performed according to the following procedure.
Cellular Assay Experimental Method:
as §1

Row | Structure (SMILES) | fold resistance (FR), strain P [1] | fold resistance (FR), strain M [2] | fold resistance (FR), strain A [3] | fold resistance (FR), strain N [4] | fold resistance (FR), strain Q [5] | fold resistance (FR), strain B [6] | fold resistance (FR), strain G [7] | fold resistance (FR), strain K [8] | fold resistance (FR), strain E [9] | fold resistance (FR), strain R [10] | fold resistance (FR), strain D [11] | fold resistance (FR), strain S (virus strain S (R13080)) | fold resistance (FR), strain F (virus strain F (R13025)) | fold resistance (FR), strain C [12] | fold resistance (FR), strain H [13] | fold resistance (FR), strain J [14] | fold resistance (FR), strain O [15] | fold resistance (FR), strain T [16] | fold resistance (FR), strain I [17] | fold resistance (FR), strain L [18] | further results
1 | CC(C)CN(C[C@@H](O)[C@H](Cc1ccccc1)NC(=O)O[C@H]1CCOC1)S(=O)(=O)c1ccc2nc(NC(=O)CN(C)C)sc2c1 [Compound 34] | 0.9 | 1.2 | 5.0 | 4.0 | 4.0 | 5.9 | 3.2 | 1.3 | 4.5 | 1.1 | 6.6 | 99.6 | 61.9 | 5.5 | 11.4 | 5.8 | 5.0 | 802.7 | 5.6 | 1.2 | 
2 | CC(C)CN(C[C@@H](O)[C@H](Cc1ccccc1)NC(=O)O[C@H]1CO[C@H]2OCC[C@H]21)S(=O)(=O)c1ccc2nc(NC(=O)CN3CCCC3)sc2c1.Cl [Compound 14] | 0.2 | 0.2 | 0.2 | 0.9 | 0.3 | 0.2 | 0.2 | 0.2 | 0.3 | 0.2 | 0.2 | 0.7 | 0.4 | 0.2 | 0.5 | 0.3 | 0.3 | 5.9 | 0.4 | 0.1 | 
3 | Cc1cc(N)ccc1C(=O)NC(Cc1ccccc1)C(O)CN(CC(C)C)S(=O)(=O)c1ccc2nc(NC(=O)CN(C)C)sc2c1 (stereo not drawn) [Compound 43] | 0.2 | 1.2 | 1.1 | 1.2 | 1.1 | 0.9 | 0.6 | 0.4 | 0.7 | 1.0 | 0.9 | 3.0 | 1.1 | 1.1 | 1.3 | 3.4 | 2.4 | 31.4 | 1.5 | 1.0 | pEC50 (HIV-1 strain LAI): > 7.30
4 | CC(=O)N(C)c1nc2ccc(S(=O)(=O)N(CC(C)C)CC(O)C(Cc3ccccc3)NC(=O)OC3COC4OCCC34)cc2s1 (mixture of isomers) [Compound 9] | 0.2 | 0.5 | 1.5 | 1.5 | 1.8 | 1.5 | 1.5 | 1.0 | 2.3 | 1.2 | 5.7 | 29.3 | 13.0 | 1.6 | 6.7 | 6.2 | 3.7 | 550.9 | 2.3 | 0.7 | 
